The text below walks through data of patent US12391680B2, “Compounds and compositions for the treatment of cystic fibrosis” (FONDAZIONE ISTITUTO ITALIANO DI TECNOLOGIA, priority 2019, dated 2025).

What all share (type): cell-based
One assay has as its target mutant CFTR (Homo sapiens, UniProt P13569). In words: Fluorescence assay for CFTR activity (halide-sensitive YFP, HS-YFP). Conditions: CFBE41o- and FRT cells with stable expression of mutant CFTR. The gist of the method:
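CFBE41o- or FRT cells stably expressing mutant CFTR and HS-YFP; correctors given 24 h, then 30 min forskolin 20 μM plus genistein 50 μM. Potentiators given 30 min with forskolin 20 μM, after 24 h at 27° C. for F508del, directly for G551D or G1349D. Quenching rate after 100 mM final I^− gives EC50.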

For assay [1], the target named is T1, F508del-CFTR (Homo sapiens, UniProt P13569, DEL508-508). In words: Transepithelial electrical conductance (TEEC) in FRT cells expressing F508del-CFTR. Also noted: expressed in transfected cells; host or cells: FRT cells. Particulars: tested at 5.0 μM, 24 hrs incubation. On the procedure:
FRT cells expressing F508del-CFTR were plated on HTS Transwell-24 well permeable supports (Code 3379, Corning Life Sciences) at a density of 200,000 cells/well. After six days, cells were incubated for 24 hrs with test correctors, vehicle, or VX-809. Compounds were dissolved in both basolateral (800 μL) and apical (300 μL) culture medium. After treatment, the culture medium was removed and replaced on both sides with a saline solution containing (in mM): 130 NaCl, 2.7 KCl, 1.5 KH2PO4, 1 CaCl2, 0.5 MgCl2, 10 glucose, 10 Na-Hepes (pH 7.4). The basolateral and apical side received 800 μL and 100 μL, respectively. The 24-well tray with cells was placed on a block heater (SBH 130D, Stuart) to keep the temperature at 37° C. during the entire experiment. After 10 min, the basal transepithelial electrical resistance (TEER) across each layer of FRT cells was measured with a STX100C electrode pair connected to an EVOM2 voltohmeter (World Precision Instruments). To stimulate F508del-CFTR, each well received (apical side) 50 μL of saline solution containing 60 μM forskolin and 150 μM genistein (final concentrations: 20 μM forskolin, 50 μM genistein). Forskolin was also pipetted in the basolateral medium to obtain the 20 μM concentration. After 10 min TEER was measured again in each well. To block F508del-CFTR function, the inhibitor PPQ-102 was used at the final concentration of 30 μM. To achieve the desired concentration, 75 μL of the apical solution in each well was replaced with an equal volume of saline solution containing 20 μM forskolin, 50 μM genistein, and 60 μM PPQ-102. After further 10 min, the transepithelial electrical resistance was measured. All values of TEER were converted to transepithelial electrical conductance (TEEC) using the formula TEEC=1/TEER. The parameter to indicate activity of F508del-CFTR in each well (ATEEC) was calculated from the difference in TEEC measured after maximal stimulation of F508del-CFTR with forskolin and genistein and after block with PPQ-102.
Corrector activities obtained on selected compounds tested at 5.0 μM (expressed as ΔTEEC values) are illustrated in Table 2, wherein+: ΔTEEC<2000 μS; ++: 2000 μS <ΔTEEC<3000ρS; +++: ΔTEEC>3000 μS.

Assay [2] concerns the target T1, F508del-CFTR. In words: Short-circuit current recordings on human bronchial epithelial cells from CF patients (F508del/F508del). Particulars: HBE cells F508del/F508del, 24 hrs treatment, CPT-cAMP plus VX-770 minus CFTRinh-172. Also noted: Human bronchial epithelial (HBE) cells obtained from CF patients (F508del/F508del genotype); endogenous in cells; host or cells: primary human bronchial epithelial cells from CF patients, F508del/F508del. How it is done: Human bronchial epithelial (HBE) cells obtained from CF patients (F508del/F508del genotype) were plated on Snapwell inserts (Code 3801, Corning Life Sciences) at a density of 500,000 cells per insert. Cells were cultured for two weeks in a differentiating medium whose compositions has been previously described (Scudieri et al., J Physiol 590:6141-6155, 2012). For the first week, the medium was kept on both apical and basolateral sides of inserts (submerged condition). For the second week, the apical medium was removed (air-liquid condition, ALC). To test the activity of correctors, cells were treated for 24 hrs with compounds dissolved in the basolateral medium. After treatment, Snapwell inserts carrying differentiated bronchial epithelia were mounted in a vertical chamber resembling an Ussing system with internal fluid circulation. Both apical and basolateral hemichambers were filled with 5 mL of a Krebs bicarbonate solution containing (in mM): 126 NaCl, 0.38 KH2PO4, 2.13 K2HPO4, 1 MgSO4, 1 CaCl2, 24 NaHCO3, and 10 glucose. Both sides were continuously bubbled with a gas mixture containing 5% CO2-95% air and the temperature of the solution was kept at 37° C. The transepithelial voltage was short-circuited with a voltage-clamp (DVC-1000, World Precision Instruments) connected to the apical and basolateral chambers via Ag/AgCl electrodes and agar bridges (1 M KCl in 1% agar). The offset between voltage electrodes and the fluid resistance were canceled before experiments. The short-circuit current was recorded with a PowerLab 4/25 (ADInstruments) analogical to digital converter connected to a Macintosh computer. […] The difference between the current measured with CPT-cAMP plus potentiator and the current remaining after CFTRinh-172 treatment (ΔICFTR) was taken as the parameter reflecting F508del-CFTR expression in the apical membrane.
Activities of selected compounds on HBE cells (expressed as ΔICFTR) are illustrated in Table 3 wherein+: ΔICFTR<2.0 μA; ++: 2.0 μA<ΔICFTR<3.0 μA; +++: ΔICFTR >3.0 μA.

pEC50: −log10 of the molar value.

The term pEC50 denotes −log10 of the EC50, conventionally taken in molar units.

T1 sequence (P13569 with tags, fused parts or gaps DEL508-508): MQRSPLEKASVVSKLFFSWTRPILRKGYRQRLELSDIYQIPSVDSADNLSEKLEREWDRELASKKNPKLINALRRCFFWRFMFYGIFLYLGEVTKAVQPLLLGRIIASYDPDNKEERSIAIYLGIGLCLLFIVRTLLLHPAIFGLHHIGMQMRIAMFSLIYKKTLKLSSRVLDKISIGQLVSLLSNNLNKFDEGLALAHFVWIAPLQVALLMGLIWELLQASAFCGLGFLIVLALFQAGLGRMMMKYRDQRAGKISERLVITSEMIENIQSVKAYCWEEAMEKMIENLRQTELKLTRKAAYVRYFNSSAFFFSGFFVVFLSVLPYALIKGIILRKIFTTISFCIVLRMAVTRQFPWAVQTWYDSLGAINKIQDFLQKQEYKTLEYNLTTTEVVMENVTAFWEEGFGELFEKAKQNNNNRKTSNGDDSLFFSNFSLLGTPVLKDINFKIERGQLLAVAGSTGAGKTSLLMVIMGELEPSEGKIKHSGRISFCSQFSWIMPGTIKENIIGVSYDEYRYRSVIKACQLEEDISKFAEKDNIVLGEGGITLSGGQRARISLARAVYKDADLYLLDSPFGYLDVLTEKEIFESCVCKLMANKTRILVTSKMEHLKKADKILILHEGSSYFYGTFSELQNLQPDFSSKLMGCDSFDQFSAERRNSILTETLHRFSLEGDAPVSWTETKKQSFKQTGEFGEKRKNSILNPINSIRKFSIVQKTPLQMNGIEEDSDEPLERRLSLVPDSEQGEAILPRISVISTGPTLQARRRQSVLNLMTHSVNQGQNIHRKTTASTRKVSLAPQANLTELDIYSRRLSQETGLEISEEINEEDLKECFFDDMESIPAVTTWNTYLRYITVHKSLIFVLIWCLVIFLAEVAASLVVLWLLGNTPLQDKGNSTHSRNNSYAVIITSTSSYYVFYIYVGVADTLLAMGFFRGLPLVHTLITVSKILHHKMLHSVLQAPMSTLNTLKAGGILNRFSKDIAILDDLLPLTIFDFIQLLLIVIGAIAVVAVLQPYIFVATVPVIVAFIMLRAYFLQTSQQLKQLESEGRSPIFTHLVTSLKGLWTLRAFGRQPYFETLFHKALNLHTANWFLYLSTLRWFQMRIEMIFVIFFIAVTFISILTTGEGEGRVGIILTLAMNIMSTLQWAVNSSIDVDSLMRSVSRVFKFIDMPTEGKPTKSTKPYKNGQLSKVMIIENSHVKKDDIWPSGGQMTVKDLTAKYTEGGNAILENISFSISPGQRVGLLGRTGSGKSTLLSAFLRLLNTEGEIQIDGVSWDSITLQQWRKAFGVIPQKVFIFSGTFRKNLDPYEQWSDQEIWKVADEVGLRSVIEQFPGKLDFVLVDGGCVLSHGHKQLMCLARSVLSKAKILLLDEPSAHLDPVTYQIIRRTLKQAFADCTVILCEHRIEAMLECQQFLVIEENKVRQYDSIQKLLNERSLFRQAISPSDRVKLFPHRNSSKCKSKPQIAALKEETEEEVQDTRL
Sequence of mutant CFTR (P13569 with tags, fused parts or gaps DEL508-508): as above

As for `NC(=O)c1sc2ccccc2c1C1CN(S(=O)(=O)c2ccc(OC(F)(F)F)cc2)CCO1` (racemic) [compound 039, rac-3-[4-[4-(trifluoromethoxy)phenyl]sulfonylmorpholin-2-yl]benzothiophene-2-carboxamide], at mutant CFTR, the pEC50 was above 6.00. The “activity (corrector activity expressed as ΔTEEC)” value at F508del-CFTR [1] is reported as “++ (2000 μS <ΔTEEC<3000ρS)”.
For the compound `NC(=O)c1sc2ccccc2c1C1CN(S(=O)(=O)c2ccc(C(F)(F)F)c(F)c2)CCO1` (racemic) [compound 041, rac-3-[4-[3-fluoro-4-(trifluoromethyl)phenyl]sulfonylmorpholin-2-yl]benzothiophene-2-carboxamide], the negative-log EC50 (pEC50) at mutant CFTR is above 6.00. The “activity (ΔICFTR)” value on F508del-CFTR [2] was “++ (2.0 μA<ΔICFTR<3.0 μA)”. The “activity (corrector activity expressed as ΔTEEC)” value at F508del-CFTR [1] is on record as “+++ (ΔTEEC>3000 μS)”.
As for `NC(=O)c1sc2ccccc2c1[C@H]1CN(S(=O)(=O)c2ccc(C(F)(F)F)cc2)CCO1` (single isomer, unassigned) [compound 043], on mutant CFTR, the pEC50 is above 6.00. Besides, the “activity (corrector activity expressed as ΔTEEC)” value on F508del-CFTR [1] was “+++ (ΔTEEC>3000 μS)”.
As to `Cc1cc(S(=O)(=O)N2CCOC(c3c(C(N)=O)sc4ccccc34)C2)ccc1F` (racemic) [compound 001, rac-3-[4-(4-fluoro-3-methyl-benzenesulfonyl)-morpholin-2-yl]-benzo[b]thiophene-2-carboxylic acid amide], at mutant CFTR, the pEC50 was below 5.70. The “activity (ΔICFTR)” value on F508del-CFTR [2] was “+ (ΔICFTR<2.0 μA)”. Further, the “activity (corrector activity expressed as ΔTEEC)” value at F508del-CFTR [1] was “++ (2000 μS <ΔTEEC<3000ρS)”.
The like results for `NC(=O)c1sc2ccccc2c1C1CN(S(=O)(=O)c2ccc(C(F)(F)F)cc2)CCO1` (racemic) [compound 011, rac-3-[4-[4-(trifluoromethyl)phenyl]sulfonylmorpholin-2-yl]benzothiophene-2-carboxamide] were, in that order, 5.70 to 6.00, “+++ (ΔICFTR >3.0 μA)” and “++ (2000 μS <ΔTEEC<3000ρS)”.
On the same counts, the results for `Cc1nc2ccc(S(=O)(=O)N3CCOC(c4c(C(N)=O)sc5ccccc45)C3)cc2o1` (racemic) [compound 034, rac-3-[4-[(2-methyl-1,3-benzoxazol-6-yl)sulfonyl]morpholin-2-yl]benzothiophene-2-carboxamide] are above 6.00, “+++ (ΔICFTR >3.0 μA)” and “++ (2000 μS <ΔTEEC<3000ρS)”.
Turning to `NC(=O)c1sc2ccccc2c1[C@@H]1CN(S(=O)(=O)c2ccc(C(F)(F)F)cc2)CCO1` (single isomer, unassigned) [compound 042], the pEC50 on mutant CFTR was below 5.70. The “activity (corrector activity expressed as ΔTEEC)” value at F508del-CFTR [1] is listed as “+ (ΔTEEC<2000 μS)”.
